{"source": "patent US5866787A", "about": "“Transgenic plants co-expressing a functional human 2-5A system” (Cleveland Clinic Foundation, priority 1995, dated 1999)", "molecules": {"B1": {"name": "ZB15: murine 2-5A-dependent RNase deletion clone, amino acids 1 to 218, both P-loop motifs deleted (protein, UniProt Q05921 1-218, looked up, fragment)", "chain": "METPDYNTPQGGTPSAGSQRTVVEDDSSLIKAVQKGDVVRVQQLLEKGADANACEDTWGWTPLHNAVQAGRVDIVNLLLSHGADPHRRKKNGATPFIIAGIQGDVKLLEILLSCGADVNECDENGFTAFMEAAERGNAEALRFLFAKGANVNLRRQTTKDKRRLKQGGATALMSAAEKGHLEVLRILLNDMKAEVDARDNMGRNALIRTLLNWDCENV"}, "B2": {"name": "ZB11: murine 2-5A-dependent RNase deletion clone, amino acid residues 1 to 342 (protein, UniProt Q05921 1-342, looked up, fragment)", "chain": "METPDYNTPQGGTPSAGSQRTVVEDDSSLIKAVQKGDVVRVQQLLEKGADANACEDTWGWTPLHNAVQAGRVDIVNLLLSHGADPHRRKKNGATPFIIAGIQGDVKLLEILLSCGADVNECDENGFTAFMEAAERGNAEALRFLFAKGANVNLRRQTTKDKRRLKQGGATALMSAAEKGHLEVLRILLNDMKAEVDARDNMGRNALIRTLLNWDCENVEEITSILIQHGADVNVRGERGKTPLIAAVERKHTGLVQMLLSREGINIDARDNEGKTALLIAVDKQLKEIVQLLLEKGADKCDDLVWIARRNHDYHLVKLLLPYVANPDTDPPAGDWSPHSSRW"}, "B3": {"name": "recombinant human 2-5A-dependent RNase: full-length human 2-5A-dependent RNase (clone ZC5) produced in vitro in reticulocyte lysate (protein)", "chain": "MESRDHNNPQEGPTSSSGRRAAVEDNHLLIKAVQNEDVDLVQQLLEGGANVNFQEEEGGWTPLHNAVQMSREDIVELLLRHGADPVLRKKNGATLFILAAIAGSVKLLKLFLSKGADVNECDFYGFTAFMEAAVYGKVKALKFLYKRGANVNLRRKTKEDQERLRKGGATALMDAAEKGHVEVLKILLDEMGADVNACDNMGRNALIHALLSSDDSDVEAITHLLLDHGADVNVRGERGKTPLILAVEKKHLGLVQRLLEQEHIEINDTDSDGKTALLLAVELKLKKIAELLCKRGASTDCGDLVMTARRNYDHSLVKVLLSHGAKEDFHPPAEDWKPQSSHWGAALKDLHRIYRPMIGKLKFFIDEKYKIADTSEGGIYLGFYEKQEVAVKTFCEGSPRAQREVSCLQSSRENSHLVTFYGSESHRGHLFVCVTLCEQTLEACLDVHRGEDVENEEDEFARNVLSSIFKAVQELHLSCGYTHQDLQPQNILIDSKKAAHLADFDKSIKWAGDPQEVKRDLEDLGRLVLYVVKKGSISFEDLKAQSNEEVVQLSPDEETKDLIHRLFHPGEHVRDCLSDLLGHPFFWTWESRYRTLRNVGNESDIKTRKSESEILRLLQPGPSEHSKSFDKWTTKINECVMKKMNKFYEKRGNFYQNTVGDLLKFIRNLGEHIDEEKHKKMKLKIGDPSLYFQKTFPDLVIYVYTKLQNTEYRKHFPQTHSPNKPQCDGAGGASGLASPGC"}, "B4": {"name": "ZB13: murine 2-5A-dependent RNase deletion clone, amino acids 1 to 294 (protein, UniProt Q05921 1-294, looked up, fragment)", "chain": "METPDYNTPQGGTPSAGSQRTVVEDDSSLIKAVQKGDVVRVQQLLEKGADANACEDTWGWTPLHNAVQAGRVDIVNLLLSHGADPHRRKKNGATPFIIAGIQGDVKLLEILLSCGADVNECDENGFTAFMEAAERGNAEALRFLFAKGANVNLRRQTTKDKRRLKQGGATALMSAAEKGHLEVLRILLNDMKAEVDARDNMGRNALIRTLLNWDCENVEEITSILIQHGADVNVRGERGKTPLIAAVERKHTGLVQMLLSREGINIDARDNEGKTALLIAVDKQLKEIVQLLLE"}, "B5": {"name": "ZB14: murine 2-5A-dependent RNase deletion clone, amino acids 1 to 265, one P-loop motif deleted (protein, UniProt Q05921 1-265, looked up, fragment)", "chain": "METPDYNTPQGGTPSAGSQRTVVEDDSSLIKAVQKGDVVRVQQLLEKGADANACEDTWGWTPLHNAVQAGRVDIVNLLLSHGADPHRRKKNGATPFIIAGIQGDVKLLEILLSCGADVNECDENGFTAFMEAAERGNAEALRFLFAKGANVNLRRQTTKDKRRLKQGGATALMSAAEKGHLEVLRILLNDMKAEVDARDNMGRNALIRTLLNWDCENVEEITSILIQHGADVNVRGERGKTPLIAAVERKHTGLVQMLLSREGIN"}}, "key": {"[1]": {"system": "murine 2-5A-dependent RNase (truncated recombinant clone ZB1 and murine L cell enzyme)", "test": "UV covalent crosslinking of 32P-2-5A probe with unlabeled oligonucleotide competitors, murine enzyme", "assay_type": "binding", "conditions": "for competition with 2-5A probe binding: competitor 100 nM, recombinant 74 kDa protein produced in wheat germ extract", "method": "FIG. 2A is a specific affinity of truncated murine 2-5A-dependent RNase for 2-5A. UV covalent crosslinking of the ^32 P-2-5A probe (lanes 1-7) to protein is performed after translation reactions in wheat germ extract (5 μl) with murine 2-5A-dependent RNase mRNA (from clone ZB1) (lanes 1-3) or without added RNA (lane 4) or in extract of interferon treated mouse L cells (100 μg of protein) (lanes 5-7). Reactions are without added competitor (lanes 1, 4, and 5) or in the presence of either timer core. (A2'p)2 A, (100 nM) (lanes 2 and 6) or timer 2-5A, p3 (A2'p)2 A (100 nM) (lanes 3 and 7).\nAutoradiograms of the dried SDS/10% polyacrylamide gels are shown. Concentrations of the oligonucleotide competitors are indicated. […].\n(§1) The synthesis of the 2-5A probe, p(A2'p)2 (br^8 A2'p)2 A[32P]Cp, and its crosslinking to 2-5A-dependent RNase is performed exactly as described. See Nolan-Sorden, N. L. et al., Anal. Biochem., 184:298-304 (1990). Briefly, the 2-5A probe, about 0.7 to 2.5 nM at […], is incubated for about one hour on ice with cell extract prepared as described, Silverman, R. H. and Krause, D., I.R.L. Press, Oxford, England, pp. 149-193 (1987), in the absence or presence of unlabeled oligonucleotide competitors. Covalent crosslinking is done under a uv lamp (308 nm) for one hour on ice and the proteins are separated on SDS/10% polyacrylamide gels. Filter assays for 2-5A binding activity using the 2-5A probe for about one hour on ice, as described in Knight, M. et al., Nature, 288:189-192 (1980)."}, "[2]": {"system": "recombinant human 2-5A-dependent RNase", "test": "UV covalent crosslinking of 2-5A probe with competitors, human enzyme", "assay_type": "binding", "conditions": "competitor 100 nM; recombinant human enzyme produced in wheat germ extract", "method": "FIG. 5A is specific affinity of recombinant human 2-5A-dependent RNase for 2-5A. Crosslinking of the 2-5A probe (lanes 1-7) to protein is performed after translation reaction in wheat germ extract (5 λl) with human 2-5A-dependent RNase mRNA (lanes 1-3) or without added RNA (lane 4) or in extract of human interferon a treated (1000 units per ml for 16 h) human HeLa cells (350 μg of protein) (lanes 5-7). Reactions were without added competitor (lanes 1, 4, and 5) or in the presence of either timer core, (A2'p)2 A, (100 nM) (lanes 2 and 6) or timer 2-5A, p3 (A2'p)2 A (100 nM) (lanes 3 and 7). Incubations with ^35 S-methionine are shown in lanes 8 to 12. Lane 8 is with wheat germ extract and human 2-5A-dependent RNase mRNA. Reticulocyte lysate preadsorbed to 2-5A-cellulose is incubated with human 2-5A-dependent RNase mRNA in the absence (lane 9) or presence (lane 10) of cycloheximide, or in the absence of added mRNA (lane 11). […] The positions and relative molecular masses (in kDa) of the marker proteins are indicated.\nThe synthesis of the 2-5A probe, p(A2'p)2 (br^8 A2'p)2 A[32P]Cp, and its crosslinking to 2-5A-dependent RNase is performed exactly as described. See Nolan-Sorden, N. L. et al., Anal. Biochem., 184:298-304 (1990). […]"}, "2-5A probe": {"system": "2-5A probe", "test": "2-5A binding activity of nested 3'-deletion clones (filter binding and uv crosslinking)", "conditions": "produced in wheat germ extract", "text": "See Example and Knight et al. 1980). The positions of the P-loop motifs and the lengths of the translation products are indicated. Clone ZB1 encodes for amino acids designated as 1-656 in Table 2, except for the last 5 amino acid residues which are Lys, Pro, Leu, Ser, and Gly. Clone ZB2 encodes for amino acids designated as 1-619 in Table 2. Clone ZB3 encodes for amino acids designated as 1-515 in Table 2. Clone ZB5 encodes for amino acids designated as 1-474 in Table 2. Clone ZB9 encodes for amino acids designated as 1-403 in Table 2. Clone ZB10 encodes for amino acids designated as 1-365 in Table 2. Clone ZB13 encodes for amino acids designated as 1-294 in Table 2. Clone ZB14 encodes for amino acids designated as […] in Table 2. Clone ZB15 encodes for amino acids designated as 1-218 in Table 2.\nThe set of nested 3'-deletions of the truncated murine 2-5A-dependent RNase cDNA, ZB1, is generated with exonuclease III/S1 nuclease digestion followed by filling-in with Klenow DNA Polymerase using the \"Erase-A-Base\" system (Promega).\nas §1"}, "poly(U)": {"system": "poly(U)", "test": "Ribonuclease assay with 2-5A-cellulose, poly(U) substrate", "assay_type": "biochemical", "conditions": "enzyme translated in reticulocyte lysate, bound to 2-5A-cellulose, 30° C.", "method": "(§2) FIG. 5B is reticulocyte lysate pretreated to remove endogenous 2-5A-dependent RNase and is incubated in the absence of added mRNA (.box-solid.), in the presence of human 2-5A-dependent RNase mRNA without inhibitor (.smallcircle., .quadrature.) or in the presence of both 2-5A-dependent RNase mRNA and cycloheximide (50 μg per ml (.circle-solid.). See Example I. Subsequently, the recombinant 2-5A-dependent RNase (or controls) is adsorbed to 2-5A-cellulose and ribonuclease assays are performed after extensive washing of the matrix to reduce general nuclease activity. Radiolabeled substrate RNA was either poly(U) (.smallcircle., .circle-solid., .box-solid.) or poly(C) (.quadrature.).\n(§3) The ribonuclease assay with 2-5A-cellulose is performed, as described by Silverman, R. H., Anal. Biochem., 144:450-460 (1985). Briefly, lysates are adsorbed to about […] of 2-5A-cellulose on ice for about two hours. The matrix is then washed three times by centrifuging and resuspending in buffer A. See Silverman, R. H., Anal. Biochem., 144:450-460 (1985). The matrix is then incubated with poly(U)-[^32 P]Cp or poly(C)-[^32 P]Cp (both at about 16 μM in nucleotide equivalents) at about 30° C. and the levels of acid-precipitable radioactive RNA are determined by filtration on glass-fiber filters."}, "poly(C)": {"system": "poly(C)", "test": "Ribonuclease assay with 2-5A-cellulose, poly(C) substrate", "assay_type": "biochemical", "conditions": "after one hour of incubation", "method": "as §2, §3"}, "[3]": {"conditions": "2-5A probe 2.4 nM, both recombinant and naturally occurring protein"}}, "data": [{"molecule": "(A2'p)2 A", "values": [{"measurement": "concentration required to prevent 2-5A probe binding", "setting": "[1]; [3]", "value": 10, "unit": "µM"}, {"measurement": "competition with 2-5A probe binding", "setting": "[1]", "value": "fails to interfere with binding"}, {"measurement": "fold higher concentration than trimer 2-5A required to prevent probe binding", "setting": "[1]; relative to p3 (A2'p)2 A at about 20 nM", "value": 500, "unit": "fold"}, {"measurement": "competition with 2-5A probe binding", "setting": "[2]", "value": "not prevented"}]}, {"molecule": "p3 (A2'p)2 A", "values": [{"measurement": "concentration that prevents the 2-5A probe from binding", "setting": "[1]; [3]", "value": "about 20 nM"}, {"measurement": "competition with 2-5A probe binding", "setting": "[1]", "value": "completely prevents probe binding"}, {"measurement": "competition with 2-5A probe binding", "setting": "[2]", "value": "effectively competes"}]}, {"molecule": "p3 A2'pA", "values": [{"measurement": "concentration required to prevent 2-5A probe binding", "setting": "[1]; [3]", "value": "> 10", "unit": "µM"}]}, {"molecule": "p3 I2'pA2'pA", "values": [{"measurement": "concentration required to prevent 2-5A probe binding", "setting": "[1]; [3]", "value": "about 1.0 μM"}]}, {"molecule": "B1", "values": [{"measurement": "2-5A binding activity, % of clone ZB1", "setting": "2-5A probe", "value": "completely lacking"}]}, {"molecule": "B2", "values": [{"measurement": "loss of 2-5A binding activity as compared to clone ZB1", "setting": "2-5A probe", "value": "about 26%"}]}, {"molecule": "B3", "values": [{"measurement": "half-life of poly(U) degradation", "setting": "poly(U)", "value": "about 10 minutes"}, {"measurement": "poly(C) degraded", "setting": "poly(C)", "value": 20, "unit": "%"}]}, {"molecule": "B4", "values": [{"measurement": "2-5A binding activity, % of clone ZB1", "setting": "2-5A probe", "value": "about 38.3%"}]}, {"molecule": "B5", "values": [{"measurement": "2-5A binding activity, % of clone ZB1", "setting": "2-5A probe", "value": 1.9, "unit": "%"}]}]}
